Results on 1 molecule are retold here after paper PMC6474902, “Examination of novel 4-aminoquinoline derivatives designed and synthesized by a hybrid pharmacophore approach to enhance their anticancer activities” (Scientific Reports, 2019).

Type in all cases: cell-based, human
One assay relates to HeLa. The experiment in a line: Combination with bortezomib, cell death. To be noted: 48 h post-treatment; BTZ 6 nM, compound 13 0.75 µM, alone or combined.
The subject of assay [1] is MCF7 cells. Description: LysoTracker Red staining of lysosomal volume. The note with it: 5 μM, 48 h. As for the experimental part: (§1) Since the structure of compound 13 contains the main scaffold of CQ, we examined whether cells treated with compound 13 also results an increase in the lysosomal volume.
Figure 7 Lysosomal volumes are increased in MCF7 cells treated with compound 13. Lysomes were visualized by treating MCF7 cells with lysoTracker Red for 48 h in the absence (Sham) or presence of 5 μM compound 13. The nuclei of cells in rows a and c were visualized by staining with DRAQ5. Note that rows a, c and e are enlarged images.
(§2) LysoTracker Red sDND-99 staining was carried out as recommended by the manufacturer (Molecular Probes, Eugene, OR). Briefly, cells grown on a cover slip were incubated in 50 nM LysoTracker Red DND-99 in serum-free RPMI-1640 medium for 30 min and then rinsed once with serum-free medium. The cells were washed three times with ice-cold medium, incubated in fresh medium for 45 min at 37 °C, and then washed once with fresh medium. Subsequently, the cells were examined by fluorescence microscopy using two filters (for green and red images) sequentially. Merging the two color images was done using Northern Eclipse software.

Assay [2] has as its system Cdk1, Cdc25C, Wee1 in HeLa S3 cells. The experiment in a line: Western blot of G2-M-G1 regulators after nocodazole release. The note with it: 10 µM. The protocol:
To gain a better understanding about the molecular mechanism of compound 13 on antigrowth/cell-killing, HeLa S3 cells synchronized at G1/S by double thymidine treatment (DT) (Fig. 4b) were released into complete medium for 6 h, at which time most cells are at late S-G2/M phase (Fig. 4c). The cells were then maintained for additional 6 h in the absence (Fig. 4d) or presence of 10 μM compound 13 (Fig. 4e). More than 62% of cells progressed into G1 of the next cell cycle in the sham control (Fig. 4d). […] Since the level of securin is low, cell cycle is likely arrested prior to the chromatin separation stage in the presence of compound 13.
Figure 5 Compound 13-treated cells are arrested at prometa-metaphase through the inactivation of Cdk1. HeLa S3 cells were synchronized at G2/M phase by incubating in 50 ng/ml nocodazole (noco) for 18 h. The cells were then released into complete medium at time 0 h in the absence (Sham) or presence of 10 µM compound 13. Samples were then taken at the indicated times post-nocodazole. […] (b) Cdk1 may be inactivated by the combination of a high level of Wee1 kinase and inactivation of Cdc25C. The relative intensity of band signals are quantified by densitometry and presented the results in Supplementary Fig. S3.
Western blot and densitometry were carried out as we described previously[29],[30].
A general note: A western blot detects proteins with antibodies after separation by electrophoresis.

A further assay relates to 184B5. Description: SRB antiproliferative/antigrowth assay, non-cancer cells. To be noted: Homo sapiens, 184B5, 48 h, read-out: GI50 184B5. The method, boiled down:
(§3)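 Cells seeded 24 h before exposure to seven concentrations (100 µM to 0.0064 µM) for 48 h at 37 °C. Growth by TCA fixation and SRB staining, absorbance 515–564 nm, relative to time-zero and untreated controls; GI50 from variable-slope sigmoidal fit, reported as greater/less than range limits when not reached.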

Assay [3] relates to MCF10A. The description is as above. The method, boiled down:
as §3

Assay [4] has as its system MCF10A. Description: LysoTracker Red staining of lysosomal volume, non-cancer cells. The note with it: 5 μM, 48 h. The protocol:
as §1, §2
Sham treated Compound 13 (5 μ M), 48 h
(VR23) in non- cancer MCF10A, in contrast to cancer cells (MCF7, HeLa). […]

Assay [5] relates to MCF7 cells. Description: Cell killing by flow cytometry, asynchronous cells. The note with it: 2.7 μM, 48 h. (In general: Flow cytometry measures light scatter and fluorescence of single cells or particles in a stream.)
Experimental: Asynchronous MCF7 cells were incubated for 48 h in the absence (Sham control) or presence of compound 13 at 2.7 or 8.0 µM.
Cells (2.0 × 10^6) were harvested by centrifugation at 1,000 rpm on a bench-top centrifuge for 5 min, followed by fixation with ice-cold ethanol (70%) for 30 min to overnight at −20 °C[13]. The ethanol was then removed by centrifugation, and cells were resuspended in 1 × PBS solution, followed by centrifuge. The cell pellet was than stained with propidium iodide (PI) master mix (100 μg/mL RNase A, 100 μg/mL PI, 0.3% Nonidet P-40 and 0.1% sodium citrate in distilled water) for 30 min at 37 °C. DNA content was measured using a Beckmann Coulter Cytomics FC500 (Beckman Coulter, Fullerton, CA), and the proportion of cell populations in G0/G1, S, and G2/M phases of cell cycle was calculated on the basis of DNA distribution histograms using CXP software.

“Also recorded” adds a separate entry of the source.

A word on the GI50: it is the concentration giving 50% growth inhibition. In the case of `O=[N+]([O-])c1ccc(S(=O)(=O)N2CCN(c3ccnc4cc(Cl)ccc34)CC2)c([N+](=O)[O-])c1` [Compound 13, 7-Chloro-4-(4-(2,4-dinitrophenylsulfonyl)piperazin-1-yl)quinoline], in the assay on HeLa, the cell death result is “neither 6 nM BTZ nor 0.75 µM of compound 13 resulted in substantial HeLa cell death”. Also, the results for the lysosomal volume entry with MCF7 cells [1] and in the assay with MCF10A [4] were “substantial increase in lysosomal volume” and “does not increase; also recorded: did not show the same degree of increase in lysosomal volume”, respectively. For the same molecule, the “Cdc25C phosphatase activity status” value in assay [2] (2–3 h post-nocodazole) is “almost completely inactive”. The “phosphorylation of Thr161 and Tyr15 on Cdk1” value in assay [2] (2–3 h post-nocodazole) is listed as “highly phosphorylated”. In assay [2] (3 h post-nocodazole), the Wee1 activity status result is recorded as “very active”. In addition, the GI50 amounted to 9 ± 0.1 µM in the assay with 184B5 and 12.3 ± 0.1 µM in the assay with MCF10A [3] (Homo sapiens, MCF-10A, 48 h, read-out: GI50 MCF10A). Besides, the “higher concentration required for the same GI50 against non-cancer than cancer cells” value in the assay with MCF10A [3] (MDA-MB468 vs MCF10A) was “up to 17.6 fold”. Further, the cell killing result in the assay with MCF7 cells [5] was “effectively killed MCF7 cells”.
